Reference: ChEMBL document CHEMBL6087404, “Naphthoindole-2-carboxamides as a lipophilic chemotype of hetarene-anthraquinones potent against P-gp resistant tumor cells” (Eur J Med Chem, 2025)
Calls of active or inactive are those of the source. The rule behind the calls is not given here.

Assays:
[1] = system: K562; assay: Antiproliferative activity against human K562 cells incubated for 72 hrs by MTT assay; type: functional, cell-based; settings: K562, 72 h
[2] = system: K562/4; assay: Antiproliferative activity against human K562/4 cells incubated for 72 hrs by MTT assay; type: functional, cell-based; settings: K562/4, 72 h
[3] = Resistance index, ratio of IC50 for human K562/4 cells to IC50 for human K562 cells; type: functional
[4] = Selectivity index, ratio of IC50 for human hFB-hTERT6 cells to IC50 for human K562 cells; type: toxicity; settings: hFB-hTERT6 cells and K562 cells, read-out: Ratio IC50
[5] = Drug uptake in verapamil-treated human K562i/S9 cells at 2 uM incubated for 3 to 120 hrs by flow cytometry relative to wild-type culture; type: ADME, cell-based; settings: k562i/s9, 2 µM, time 3-120 hrs
[6] = Drug uptake in human K562i/S9 cells assessed as fold increase at 2 uM incubated for 3 to 120 hrs by flow cytometry relative to LCTA-2640; type: ADME, cell-based; settings: k562i/s9, 2 µM, time 3-120 hrs
[7] = Drug uptake in nuclear membrane of human HCT-116 cells at 3 uM incubated for 1 hr by confocal microscopy; type: ADME, cell membranes; settings: hct-116, 1 h
[8] = Drug uptake in lysosome of human HCT-116 cells at 3 uM incubated for 1 hr by LysoTracker Deep Red dye based confocal microscopy; type: ADME, subcellular; settings: hct-116, 1 h
[9] = system: K562; assay: Induction of apoptosis in human K562 cells assessed as viable cells at 1 uM incubated for 24 hrs by Annexin V-FITC/PI staining based flow cytometry (reference value: 85.9 %); type: functional; settings: read-out: Activity
[10] = system: K562; assay: Induction of apoptosis in human K562 cells assessed as late apoptotic cells at 1 uM incubated for 24 hrs by Annexin V-FITC/PI staining based flow cytometry (reference value: 2.5 %); type: functional
[11] = system: K562; assay: Induction of apoptosis in human K562 cells assessed as necrotic cells at 1 uM incubated for 24 hrs by Annexin V-FITC/PI staining based flow cytometry (reference value: 10.8 %); type: functional
[12] = system: K562/4; assay: Induction of apoptosis in human K562/4 cells assessed as viable cells at 1 uM incubated for 24 hrs by Annexin V-FITC/PI staining based flow cytometry (reference value: 86 %); type: functional; settings: read-out: Activity
[13] = system: K562/4; assay: Induction of apoptosis in human K562/4 cells assessed as early apoptotic cells at 1 uM incubated for 24 hrs by Annexin V-FITC/PI staining based flow cytometry (reference value: 1 %); type: functional
[14] = system: K562; assay: Induction of apoptosis in human K562 cells assessed as viable cells at 1 uM incubated for 48 hrs by Annexin V-FITC/PI staining based flow cytometry (reference value: 85.9 %); type: functional; settings: read-out: Activity
[15] = system: K562; assay: Induction of apoptosis in human K562 cells assessed as early apoptotic cells at 1 uM incubated for 48 hrs by Annexin V-FITC/PI staining based flow cytometry (reference value: 0.8 %); type: functional
[16] = system: K562; assay: Induction of apoptosis in human K562 cells assessed as late apoptotic cells at 1 uM incubated for 48 hrs by Annexin V-FITC/PI staining based flow cytometry (reference value: 2.5 %); type: functional
[17] = system: K562/4; assay: Induction of apoptosis in human K562/4 cells assessed as early apoptotic cells at 1 uM incubated for 48 hrs by Annexin V-FITC/PI staining based flow cytometry (reference value: 1 %); type: functional
[18] = system: K562/4; assay: Induction of apoptosis in human K562/4 cells assessed as late apoptotic cells at 1 uM incubated for 48 hrs by Annexin V-FITC/PI staining based flow cytometry (reference value: 2.5 %); type: functional
[19] = system: K562/4; assay: Induction of apoptosis in human K562/4 cells assessed as viable cells at 1 uM incubated for 48 hrs by Annexin V-FITC/PI staining based flow cytometry (reference value: 10.8 %); type: functional; settings: read-out: Activity
[20] = system: K562; assay: Effect on cell cycle distribution in human K562 cells assessed as cells with fragmented DNA at sub-G1 phase at 0.75 uM incubated for 72 hrs by PI staining based flow cytometry (reference value: 3 %); type: functional
[21] = system: K562; assay: Effect on cell cycle distribution in human K562 cells assessed as cells with fragmented DNA at sub-G1 phase at 1 uM incubated for 48 hrs by PI staining based flow cytometry (reference value: 3 %); type: functional
[22] = system: K562/4; assay: Effect on cell cycle distribution in human K562/4 cells assessed as cells with fragmented DNA at sub-G1 phase at 0.75 uM incubated for 24 hrs by PI staining based flow cytometry (reference value: 4 %); type: functional
[23] = system: K562/4; assay: Effect on cell cycle distribution in human K562/4 cells assessed as cells with fragmented DNA at sub-G1 phase at 0.75 uM incubated for 48 hrs by PI staining based flow cytometry (reference value: 4 %); type: functional
[24] = system: K562/4; assay: Effect on cell cycle distribution in human K562/4 cells assessed as cells with fragmented DNA at sub-G1 phase at 1 uM incubated for 24 hrs by PI staining based flow cytometry (reference value: 4 %); type: functional
[25] = system: K562/4; assay: Effect on cell cycle distribution in human K562/4 cells assessed as cells with fragmented DNA at sub-G1 phase at 1 uM incubated for 48 hrs by PI staining based flow cytometry (reference value: 4 %); type: functional
[26] = system: DNA; assay: Binding affinity to pBR322 plasmid DNA (unknown origin) assessed as effect on electrophoretic mobility of DNA at 1 to 40 uM incubated for 30 mins; type: nucleic-acid assay; settings: Escherichia coli, dose 1-40 µM
[27] = target: T1, DNA topoisomerase 1 (Homo sapiens) (UniProt P11387); assay: Inhibition of Top1 (unknown origin)-mediated unwinding of supercoiled DNA at 5 uM incubated for 30 mins by electrophoretic analysis
T1 sequence (whole entry): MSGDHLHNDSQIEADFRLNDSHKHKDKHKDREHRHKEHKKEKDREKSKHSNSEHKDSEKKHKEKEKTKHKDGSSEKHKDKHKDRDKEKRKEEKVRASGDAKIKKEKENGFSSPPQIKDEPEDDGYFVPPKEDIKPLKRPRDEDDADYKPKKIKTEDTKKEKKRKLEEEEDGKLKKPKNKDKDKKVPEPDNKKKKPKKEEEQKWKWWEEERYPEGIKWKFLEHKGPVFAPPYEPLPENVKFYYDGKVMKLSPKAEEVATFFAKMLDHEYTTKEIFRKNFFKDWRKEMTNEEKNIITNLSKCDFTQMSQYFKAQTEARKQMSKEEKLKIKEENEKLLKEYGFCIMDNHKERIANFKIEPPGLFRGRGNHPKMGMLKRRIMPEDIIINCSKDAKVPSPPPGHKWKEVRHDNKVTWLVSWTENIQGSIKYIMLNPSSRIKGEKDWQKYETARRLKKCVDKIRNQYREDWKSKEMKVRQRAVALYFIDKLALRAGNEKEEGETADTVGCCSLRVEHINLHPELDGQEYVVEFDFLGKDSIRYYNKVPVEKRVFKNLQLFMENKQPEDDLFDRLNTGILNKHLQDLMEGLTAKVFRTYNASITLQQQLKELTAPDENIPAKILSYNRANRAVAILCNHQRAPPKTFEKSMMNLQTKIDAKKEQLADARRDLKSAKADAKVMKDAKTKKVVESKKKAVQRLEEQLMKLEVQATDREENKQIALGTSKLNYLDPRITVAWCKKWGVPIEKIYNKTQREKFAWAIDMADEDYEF

IC50 [1]: 500 nM
IC50 [2]: 1200 nM
Drug uptake [5]: 50%
fold change (FC) [6]: <= 2
Drug uptake [7]: Not_active
Drug uptake [8]: Active
Activity [26]: inactive
inhibition [27]: Active
SMILES: CS(=O)(=O)O.N[C@H]1CCN(C(=O)c2cc3c(O)c4c(c(O)c3[nH]2)C(=O)c2ccccc2C4=O)C1
Ratio IC50 [3]: 2.4
selectivity ratio [4]: 8.4
viability at 1 µM [9]: 29%
Activity [10]: 24.5%
Activity [11]: 46.2%
viability at 1 µM [12]: 30.1%
Activity [13]: 0.6%
viability at 1 µM [14]: 11.9%
Activity [15]: 0.5%
Activity [16]: 43.8%
Activity [17]: 0.1%
Activity [18]: 17.5%
viability at 1 µM [19]: 79%
Activity [20]: 30%
Activity [21]: 84%
Activity [22]: 8%
Activity [23]: 6%
Activity [24]: 30%
Activity [25]: 54%
